pIC50: −log10 of the molar value.
Target: Btk (Homo sapiens (Human), UniProt Q06187)
Experiment: Btk enzyme inhibitory activity (Z'-LYTE Kinase Assay Kit-Tyr1 peptide)
Format: biochemical
Conditions: Tyr-1 peptide 4 μM, Btk 5 nM, ATP 36 μM, 1 hour at 30° C.
Description: The Btk enzyme inhibitory activity was measured, based on the protocol provided by the manufacturer, using Btk (Invitrogen Corporation) and the Z′-LYTE® Kinase Assay Kit-Tyr1 peptide (Invitrogen Corporation), which contained the following reagents: Tyr-1 peptide, Thy-1 phosphopeptide, 5× kinase buffer, ATP, development reagent B, development buffer, and stop reagent.
5 μL/well of a solution of the test compound diluted with dimethyl sulfoxide (DMSO), or DMSO, and 10 μL/well of the substrate/enzyme mixture solution were dispensed to a 96-well assay plate and a reaction was carried out for 20 minutes at 30° C. […] The enzymatic reaction was then stopped by adding 10 μL of the stop solution.
The percent inhibition (%) by the test compound was calculated using the following equation. percent inhibition (%) of phosphorylation=1−{(AC−AX)/(AC−AB)}×100 [E1]

Chain of Btk (Q06187 whole entry): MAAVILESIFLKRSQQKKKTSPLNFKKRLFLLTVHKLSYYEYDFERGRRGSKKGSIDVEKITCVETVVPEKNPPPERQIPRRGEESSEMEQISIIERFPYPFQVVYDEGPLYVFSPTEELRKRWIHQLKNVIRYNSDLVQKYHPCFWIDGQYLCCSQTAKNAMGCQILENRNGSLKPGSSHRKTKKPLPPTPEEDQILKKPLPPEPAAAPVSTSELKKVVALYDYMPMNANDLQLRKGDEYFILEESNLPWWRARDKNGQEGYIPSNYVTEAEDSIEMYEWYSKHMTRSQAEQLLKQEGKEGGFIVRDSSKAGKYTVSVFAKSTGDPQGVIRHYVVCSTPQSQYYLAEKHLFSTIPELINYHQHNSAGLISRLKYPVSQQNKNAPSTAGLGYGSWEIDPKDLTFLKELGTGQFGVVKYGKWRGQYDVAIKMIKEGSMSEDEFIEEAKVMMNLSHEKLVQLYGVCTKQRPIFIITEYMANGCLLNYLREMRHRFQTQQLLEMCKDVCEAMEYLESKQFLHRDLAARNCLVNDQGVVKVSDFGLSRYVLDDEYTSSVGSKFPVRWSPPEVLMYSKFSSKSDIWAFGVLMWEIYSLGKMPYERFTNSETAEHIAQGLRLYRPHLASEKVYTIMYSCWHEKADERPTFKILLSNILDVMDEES

pIC50: 8.40
Compound: C=CC(=O)N1CC(n2c(=O)n(-c3ccc(Oc4ccccc4)cc3)c3c(N)ncnc32)C1 [Example 8, 9-(1-acryloyl-3-azetidinyl)-6-amino-7-(4-phenoxyphenyl)-7,9-dihydro-8H-purin-8-one]
